Measurements published in patent publication US10238624B2, “Composition for activating longevity genes, containing kojic acid derivative as active ingredient” (AMOREPACIFIC CORPORATION, priority 2015, dated 2019).

What was measured:
Assay type in all cases: cell-based
ERCC8 mRNA [1] = assay: Relative expression of ERCC8 mRNA in keratinocytes (TaqMan RT-PCR); conditions: normal human keratinocytes, 10 ppm, 37° C., 24 hours; control = 1.0
Experimental: (§1) In order to investigate the effect of the kojic acid derivative according to the present disclosure on the activation of longevity genes, the effect of kojyl methylenedioxycinnamate on the activation of Sirt-1, Klotho, XPD and ERCC8 was compared with that of retinol using normal human keratinocytes (NHKs) and normal human fibroblasts (NHFs).
(§2) Specifically, after treating the keratinocytes (NHKs) and fibroblasts (NHFs) with kojyl methylenedioxycinnamate or retinol at 10 ppm and incubating them at 37° C. for 24 hours, the relative expression of Sirt-1, Klotho, XPD and ERCC8 mRNAs was compared by isolating the total RNAs from the cells. The NHFs were purchased from Lonza (Allendale, N.J., USA) and incubated at 37° C. for 24 hours using DMEM after transferring 2×10^5 cells onto a 60-mm dish. After discarding the medium, the cells were transferred to a fresh tissue culture flask. […]
(§3) The total RNAs were isolated using TRIzol™ (Invitrogen, Carlsbad, Calif., USA) according to the manufacturer's instructions. RNA concentration was measured spectrophotometrically and RNA integrity was measured using BioAnalyzer 2100 (Agilent Technologies, Santa Clara, Calif., USA). […] Target gene expression level was measured by quantitative real-time TaqMan RT-PCR (7500Fast, Applied Biosystems, Foster City, Calif., USA). […]

ERCC8 mRNA [2] = assay: Relative expression of ERCC8 mRNA in fibroblasts (TaqMan RT-PCR); conditions: normal human fibroblasts, 10 ppm, 37° C., 24 hours; control = 1.0
Experimental: as §1, §2, §3

Sirt-1 mRNA [3] = assay: Relative expression of Sirt-1 mRNA in fibroblasts (TaqMan RT-PCR); conditions: normal human fibroblasts, 10 ppm, 37° C., 24 hours; control = 1.0
Experimental: as §1, §2, §3

Sirt-1 mRNA [4] = assay: Relative expression of Sirt-1 mRNA in keratinocytes (TaqMan RT-PCR); conditions: normal human keratinocytes, 10 ppm, 37° C., 24 hours; control = 1.0
Experimental: as §1, §2, §3

FoxO3a = FoxO3a activation by nuclear translocation rate in human MNT1 melanoma cells (DAPI/anti-FoxO3a confocal microscopy); conditions: 48 hours; for nuclear translocation rate: control 13.2%
Experimental: In order to investigate the effect of the kojic acid derivative according to the present disclosure on the activation of longevity genes, the effect of the kojyl methylenedioxycinnamate seletinoid G on the activation of the FoxO3a gene was investigated by measuring nuclear translocation rate using human MNT1 melanoma cells purchased from Lonza.
The degree of FoxO3a activation was evaluated based on violet fluorescence resulting from the overlapping of red and blue fluorescence. • Primary antibody: anti-FoxO3a (1:200), 4° C., overnight. • Secondary antibody: Alexa Fluor 555-conjugated goat (1:5000), room temperature, 1 hour.

Klotho mRNA [5] = assay: Relative expression of Klotho mRNA in fibroblasts (TaqMan RT-PCR); conditions: normal human fibroblasts, 10 ppm, 37° C., 24 hours; control = 1.0
Experimental: as §1, §2, §3

XPD mRNA [6] = assay: Relative expression of XPD mRNA in keratinocytes (TaqMan RT-PCR); conditions: normal human keratinocytes, 10 ppm, 37° C., 24 hours; control = 1.0
Experimental: as §1, §2, §3

XPD mRNA [7] = assay: Relative expression of XPD mRNA in fibroblasts (TaqMan RT-PCR); conditions: normal human fibroblasts, 10 ppm, 37° C., 24 hours; control = 1.0
Experimental: as §1, §2, §3

Klotho mRNA [8] = assay: Relative expression of Klotho mRNA in keratinocytes (TaqMan RT-PCR); conditions: normal human keratinocytes, 10 ppm, 37° C., 24 hours; control = 1.0
Experimental: as §1, §2, §3

Structure (SMILES) | relative expression of ERCC8 mRNA (ERCC8 mRNA [1]) | relative expression of ERCC8 mRNA (ERCC8 mRNA [2]) | relative expression of Sirt-1 mRNA (Sirt-1 mRNA [3]) | relative expression of Sirt-1 mRNA (Sirt-1 mRNA [4]) | activation of the longevity gene FoxO3a (in words) (FoxO3a; 15-450 ppm) | nuclear translocation rate (FoxO3a; 15 ppm) [%] | nuclear translocation rate (FoxO3a; 150 ppm) [%] | nuclear translocation rate (FoxO3a; 450 ppm) [%] | relative expression of Klotho mRNA (Klotho mRNA [5]) | relative expression of XPD mRNA (XPD mRNA [6]) | relative expression of XPD mRNA (XPD mRNA [7]) | relative expression of Klotho mRNA (Klotho mRNA [8])
O=C(/C=C/c1ccc2c(c1)OCO2)OCc1cc(=O)c(O)co1 [Kojyl methylenedioxycinnamate, kojyl methylenedioxycinnamate] | 1.9 | 1.4 | 2.4 | 5.2 | remarkably activates | 35.7 | 86.3 | 66.9 | 2.5 | 8.5 | 3.5 | 9.1
CC1=C(/C=C/C(C)=C/C=C/C(C)=C/CO)C(C)(C)CCC1 [Retinol, retinol, reference compound] | 1.5 | 1.3 | 2.5 | 4.6 |  |  |  |  | 2.2 | 8.2 | 2.5 | 8.9
